{
  "source": "patent US12054762B2",
  "about": "“Methods of protein production using anti-senescence compounds” (WYETH LLC, priority 2007, dated 2024)",
  "key": {"[1]": {"tested_on": "Chinese Hamster Ovary (CHO) Cell Line Producing Recombinant TNFR Fusion Protein", "assay": "Carnosine in 1 L bioreactor culture of cells producing recombinant TNFR fusion protein", "assay_type": "cell-based", "conditions": "20 mM carnosine added day 2", "protocol": "A TNFR fusion protein cell line was cultured in a serum free production medium in a bioreactor with a 1 L working volume. On day 1, the temperature was shifted from 37° C. to 29.5° C., sodium butyrate was added to a final concentration of 1 mM, and HMBA was added to a final concentration of 3 mM. The pH of the bioreactor was held at 6.95 and the dissolved oxygen was at 60% air saturation. On day 2, carnosine was added to the culture to a final concentration of 20 mM. The cells were supplemented with a 5% (v/v) feed medium on days 3, 6, 8, and 10. The cell culture medium was harvested on day 12. Four separate control bioreactors were run in which CHO cells expressing a recombinant TNFR fusion protein were grown under conditions identical to those described above, except that carnosine was not added on day 2. The control data in FIGS. 4-11 is the average of the four control bioreactor runs."}, "[2]": {"tested_on": "MYO-29 cell line", "assay": "Different concentrations of carnosine in 1 L bioreactor culture, MYO-29 cell line", "assay_type": "cell-based", "protocol": "Four bioreactors were inoculated with 0.4×10^6 cells/ml with a 1 L working volume of a MYO-29 cell line in a serum free inoculation medium. All the bioreactors were all fed 5% (v/v) of a feed medium on day 7 of the 14-day run. The conditions of the bioreactor were held at a temperature of 37° C., a pH of 7.00, and a dissolved oxygen level at 30% air saturation.\nAll cells were cultured for four days at which point the temperature was shifted in all of the bioreactors to 31° C. […] All bioreactors were harvested on day 12 of the production run. Samples were taken throughout the run to monitor the progress of the cell culture medium. The controls performed generally as expected, except one control had slightly lower daily viabilities than previously seen."}, "[3]": {"tested_on": "human or rodent transformed and neoplastic cells", "conditions": "cited from earlier work"}, "[4]": {"tested_on": "human diploid fibroblasts and human fetal lung (primary cell lines)", "conditions": "20 mM in culture media; cited from earlier work"}, "[5]": {"tested_on": "MYO-29 cell line", "assay": "Carnosine addition to 1 L bioreactor fed-batch culture, MYO-29 cell line", "assay_type": "cell-based", "conditions": "20 mM carnosine added day 4", "protocol": "Five bioreactors were inoculated with 0.9×10^6 cells/ml with a 1 L working volume of a MYO-29 cell line in a serum free inoculation medium. All the bioreactors were fed 5% (v/v) of a feed medium on days 3, 5, 7, and 12 of a 14-day run. A day 10 feed of 5% (v/v) of the feed medium was added to two of the control bioreactors and one containing carnosine. The conditions of the bioreactors were held at a temperature of 37° C., a pH of 7.00, and a dissolved oxygen level at 30% air saturation.\nThe bioreactors were harvested on day 14 of the production run. Samples were taken throughout the run to monitor the progress of the cell culture medium. The controls performed as expected."}, "[6]": {"tested_on": "MYO-29 cell line", "assay": "Dish scale carnosine experiments, MYO-29 cell line culture", "assay_type": "cell-based", "conditions": "10 mM carnosine added to dishes on day 4, 7 or 10; harvested day 12; vs no carnosine", "protocol": "A MYO-29 cell line was cultured in a serum free production medium in a bioreactor with a 1 L working volume and was temperature shifted from 37° C. to 31° C. on day 4. The pH of the bioreactor was held at 7.00 and the dissolved oxygen was at 30% air saturation. Cell culture medium was then taken from the bioreactor on day 4, day 7, and day 10 and put into culture dishes with an 8 ml working volume and placed into a 31° C. incubator, where the dish cultures were cultured until day 12. The cells were supplemented with a feed medium on days 5 and 7. On day 5, 10% (v/v) of feed medium was added to the cell cultures and on day 7, 5% (v/v) of feed medium was added to the cell cultures. 10 mM of carnosine was added on day 4, day 7, and day 10, respectively, to the dishes and the cell culture medium was harvested on day 12."}, "[7]": {"conditions": "addition of the chemical agent to cell culture; cited from earlier work"}, "[8]": {"conditions": "vs average of 4 control bioreactors"}},
  "note": "Read-outs that look alike come from different tables or passages of the source.",
  "data": [
    {"smiles": "NCCC(=O)N[C@@H](Cc1cnc[nH]1)C(=O)O", "note": "[carnosine]", "values": [
      {"measurement": "amount of misfolded and/or aggregated TNFR fusion protein", "setting": "[1]; hydrophobic interaction chromatography (HIC), vs controls", "result": "significantly reduced"},
      {"measurement": "amount of high molecular weight (HMW) aggregates", "setting": "[1]; size exclusion chromatography (SEC), vs controls", "result": "significantly reduced"},
      {"measurement": "cell growth (viable cell density)", "setting": "[1]; [8]", "result": "not significantly affected"},
      {"measurement": "cell viability", "setting": "[1]; [8]", "result": "not significantly affected"},
      {"measurement": "glycosylation of the produced TNFR fusion protein (total sialylation, sialylated N-linked oligosaccharides)", "setting": "[1]; vs controls", "result": "not significantly different"},
      {"measurement": "product titer", "setting": "[1]; vs controls", "result": "increased"},
      {"measurement": "specific cellular productivity", "setting": "[1]; vs controls", "result": "increased"},
      {"measurement": "high molecular weight aggregates", "setting": "[2]; 20 mM or 40 mM carnosine added day 4, compared to the controls", "result": "decrease"},
      {"measurement": "daily titer", "setting": "[2]; 20 mM or 40 mM carnosine added day 4, compared with one of the controls", "result": "similar"},
      {"measurement": "daily cell viability upon being harvested", "setting": "[2]; 20 mM or 40 mM carnosine added day 4, harvest day 12, compared to two control bioreactors", "result": "higher viability"},
      {"measurement": "daily viable cell density", "setting": "[2]; 20 mM or 40 mM carnosine added day 4, vs controls", "result": "fairly similar with the exception of the bioreactor with 4 mM of carnosine"},
      {"measurement": "cumulative specific cellular productivity", "setting": "[2]; 40 mM carnosine added day 4", "result": "higher"},
      {"measurement": "cytotoxicity", "setting": "[3]; Dulbecco's Modified Eagle's Medium (DMEM), contains 1 mM pyruvate", "result": "not"},
      {"measurement": "cytotoxicity", "setting": "[3]; Minimal Essential Medium (MEM), lower glucose levels", "result": "cytotoxic"},
      {"measurement": "lifespan of cells", "setting": "[4]", "result": "extend the lifespan"},
      {"measurement": "daily cell viability upon being harvested", "setting": "[5]; harvest day 14, compared to bioreactors without carnosine", "result": "higher"},
      {"measurement": "titer at the time of harvest", "setting": "[5]; harvest day 14, vs controls", "result": "higher titer"},
      {"measurement": "cumulative specific cellular productivity", "setting": "[5]; vs controls", "result": "better"},
      {"measurement": "high molecular weight aggregates", "setting": "[5]; vs controls", "result": "decrease"},
      {"measurement": "acidic peaks", "setting": "[6]", "result": "decreasing"},
      {"measurement": "high molecular weight aggregates", "setting": "[6]", "result": "decreasing"}
    ]},
    {"smiles": "CCCC(=O)[O-].[Na+]", "note": "[sodium butyrate]", "values": [
      {"measurement": "cell growth and viable cell number", "setting": "[7]", "result": "cell growth ceases and the viable cell number decreases"}
    ]}
  ]
}
